One data set has as its system NIH3T3 cells. In words: Metabolic labeling with [^3H]GCV, NIH3T3 cell clones. Format: cell-based, murine. The settings on record: 3T3. As for the experimental part:
For metabolic labeling, cells (1-2×10^6) were labeled in triplicate with 2 μCi [^3H]GCV ([…]) for 18 hours, then nucleotides were extracted from pelleted cells in 0.2 ml 70% methanol at 4° C. for 15 minutes as previously described (21, 24). An aliquot of each methanol soluble supernatant was analyzed for radioactivity by scintillation counting. The methanol insoluble pellets, representative of a crude DNA fraction, were resuspended in 0.15 ml water and also counted for radioactivity. For deoxpyrimidines, cells were grown to confluency in 60 cm^2 plates, and either 2 μCi [^3H]thymidine (2 μM final) or 2 μCi [^3H]dC (10 μM final) were added for 1 or 2 hours respectively prior to extraction in 70% methanol. Methanol-soluble extracts were concentrated by evaporation under nitrogen, and separated on PEI-cellulose thin layer chromatography plates developed in 0.8 M LiCl for GCV or 0.35 M LiCl for thymidine/dC as previously described (21).
NIH3T3 fibroblasts and the human tumor cell line HCT-116 were transfected with wild-type HSV-1TK or with one of three site specific mutants of amino acid Gln-125. From a panel of multiple HSV-1TK expressing clones, a subset of clones from each cell line expressing wild-type HSV-1 TK, the Asn-125 HSV-1 TK mutant (Asn-125TK) and the Glu-125 HSV-1 TK mutant (Glu-125TK) were selected for comparatively equivalent levels of HSV-1 TK protein expression based on Western blot determinations. In this study, these two sets of HSV-1 TK-expressing NIH 3T3 and HCT-116 cell lines were evaluated for intracellular metabolism of [^3H]GCV, [^3H]thymidine, or [^3H]dC. Cells were labeled with [^3H]GCV for 18 hours, then nucleotides were extracted in ice-cold 70% methanol as previously described (21, 24). The data in Table 3 summarize the amount of total nucleotide metabolites isolated in the methanol-soluble extracts (pmol/10^6 cells) as well as the total amount of methanol-insoluble metabolites representative of incorporation into DNA. The Asn-125TK metabolizes GCV at (or near) equal levels to the wild-type HSV-TK in both cell lines. The methanol-insoluble data, while only a crude indicator of [^3H]GCV incorporation into DNA, reflects the numbers obtained with the soluble extracts. As compared with the non-HSV-TK-expressing HCT-116 cells and consistent with data in the previous study (24), minimal [^3H]GCV metabolism was detected in the Asp-125TK cells and these cells were not further evaluated.
The methanol-soluble metabolites were further separated into their constituent phosphorylated GCV metabolites by thin layer chromatography (21). As presented in Table 4, the predominant metabolite in each HSV-TK-expressing cell line was GCVTP. In both HCT-116 and NIH3T3 cell lines, the Asn-125TK cells indicated slightly higher levels of GCVTP as compared to wild-type HSV-1 TK cell lines. […] This difference in the levels of GCVTP in the two Glu-125TK expressing cell lines could explain the lack of sensitivity to GCV killing observed for the NIH3T3 Glu-125TK cell lines.

The target in another data set is T1, HSV-1 TK (Human herpesvirus 1, UniProt P0DTH5, Q125N).
T1 construct: glutathione-S-transferase (GST)
T1 sequence (P0DTH5 1-376 Q125N): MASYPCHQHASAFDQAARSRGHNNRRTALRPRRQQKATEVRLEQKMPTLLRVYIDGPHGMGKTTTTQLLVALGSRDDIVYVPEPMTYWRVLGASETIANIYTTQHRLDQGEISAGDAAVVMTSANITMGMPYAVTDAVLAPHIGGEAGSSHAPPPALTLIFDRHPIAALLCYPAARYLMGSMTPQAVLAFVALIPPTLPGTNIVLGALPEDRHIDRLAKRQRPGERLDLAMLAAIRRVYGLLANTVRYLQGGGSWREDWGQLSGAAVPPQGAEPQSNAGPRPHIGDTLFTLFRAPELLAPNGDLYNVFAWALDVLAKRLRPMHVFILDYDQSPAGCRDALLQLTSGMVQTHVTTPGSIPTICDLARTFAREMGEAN
The note with it: previous study (17); cited from earlier work.

Another data set has as its system HCT-116 cells. In words: Clonal dilution assay for bystander effect cell killing. Type of data set: cell-based, human. The note with it: 25 μM GCV 24 hours. As to the method: Each of the three HSV-1 TK expressing cell lines were plated with parental HCT-116 cells (total 2×10^5/well) in the following proportions: (parental: HSV-1TK cells) 100%:0; 95%:5%; 90%:10%; 75%:25%; 50%:50% and 0:100%. […] After 7 days, surviving cell colonies were fixed in 100% methanol, stained with 0.1% methylene blue and counted.
For determination of GCV sensitivity, parental HCT-116 and each HSV-1 TK expressing cells were seeded in 24 well plates (2×10^5/well) in 1 ml of media. The next day, 0, 0.1, 1 or 10 μM GCV was added to each cell line in triplicate. After 24 hours, for each well the media was removed, cells were rinsed twice in fresh media, trypsinized, then media was added to 1 ml per well. Each well of cells was then sequentially diluted from 1:10 to 1:10,000 in 1 ml of fresh media on a separate 24 well plate. After 7 days, surviving cell colonies were fixed in 100% methanol, stained with 0.1% methylene blue and counted. […]
It has been previously established that HCT-116 cells expressing HSV-1 TK are sensitive to bystander effect cell death via a connexin-43 gap junction mediated transfer of GCV metabolites (24). […] In these same cell lines, a greater than 4-log reduction in cell colony numbers was detected with 25% and 50% proportions of HSV-1 TK-expressing cells. […]

In the case of Asn-125, in the data set with NIH3T3 cells, the “Phosphorylated metabolite GCVDP” value worked out at 21 pmol/10^6 cells, the “Phosphorylated metabolite GCVMP” value stood at 11 pmol/10^6 cells and the “Phosphorylated metabolite GCVTP” value is on record as 272 pmol/10^6 cells. Also, in the data set with HSV-1 TK, the “Increase in the Km of ACV” value is 3 fold and the “Increase in the Km of thymidine” value is recorded as 50 fold.

For “Gln-125 (WT): wild-type herpes simplex virus type 1 thymidine kinase with glutamine at position 125, parent enzyme [reference compound]”, in the data set with NIH3T3 cells, the “Phosphorylated metabolite GCVDP” value is 22 pmol/10^6 cells, the “Phosphorylated metabolite GCVMP” value is 12 pmol/10^6 cells and the “Phosphorylated metabolite GCVTP” value is 232 pmol/10^6 cells.

Regarding Glu-125, in the data set with NIH3T3 cells, the “Phosphorylated metabolite GCVDP” value turned out to be 0 pmol/10^6 cells, the “Phosphorylated metabolite GCVMP” value was 0 pmol/10^6 cells and the “Phosphorylated metabolite GCVTP” value was 1.6 pmol/10^6 cells. Further, the “Bystander effect: decrease in cell colony numbers” value in the data set on HCT-116 cells (10% proportions) is recorded as 1 log. Also, the “Bystander effect: decrease in cell colony numbers” value with HCT-116 cells (50% proportions) was about 3 log.

These data come from patent US6610289B2, “Mutated herpes simplex virus type 1 thymidine kinases and uses thereof” (The Board of Trustees of the University of Arkansas, priority 1998, dated 2003).
